Experimental data: US4806556A, “Gut-selective opiates” (Regents of the University of Minnesota, priority 1987, dated 1989)

Assays:
[1] = tested on: electrically-stimulated guinea pig ileum (GPI) preparations; assay: Antagonist activity: displacement of the morphine concentration-response curve on guinea pig ileum preparation; conditions: for Antagonism (Morphine IC50 Ratio): factor by which the morphine concentration-response curve is shifted to higher concentration: IC50 of morphine with antagonist / control IC50, 3 determinations
[2] = tested on: electrically-stimulated guinea pig ileum (GPI) preparations; assay: Agonist activity: inhibition of contraction of electrically-stimulated guinea pig ileum (GPI) preparation, compared to morphine; set-up: Emax: dose or concentration left out as unconfirmed; conditions: for Agonism (Morphine = 1): potency factor for the inhibition of contraction relative to that of morphine: electrically stimulated guinea pig ileum, 3 determinations; for Emax: Cavia porcellus, read-out: Agonism: partial agonist, maximal response relative to that of morphine; for Agonist activity on GPI (in words): compared to morphine

| SMILES | Antagonism (Morphine IC50 Ratio): factor by which the morphine concentration-response curve is shifted to higher concentration ([1]; ligand concentration 200 nM) | Agonism (Morphine = 1): potency factor for the inhibition of contraction relative to that of morphine [2] | Emax [2] | Agonist activity on GPI (in words) [2] | Antagonism (Morphine IC50 Ratio): factor by which the morphine concentration-response curve is shifted to higher concentration ([1]; ligand concentration = 20 nM) | Morphine antagonist activity on GPI (in words) [1] |
| --- | --- | --- | --- | --- | --- | --- |
| CN1CC[C@]23c4c5ccc(O)c4O[C@H]2C(NC(=O)COCC(=O)O)CC[C@@]3(O)[C@H]1C5 (stereo partly drawn) [Compound 11] | 1 | 3.1 |  |  |  |  |
| N=C(N)NCCCC(N)C(=O)N[C@@H]1CC[C@@]2(O)[C@H]3Cc4ccc(O)c5c4[C@@]2(CCN3CC2CC2)[C@H]1O5 (stereo partly drawn) [Compound 5, Arginyl-β-naltrexamine] | 4.0 |  | 30 to 60% | submaximal responses relative to morphine |  |  |
| O=C(O)CN[C@@H]1CC[C@@]2(O)[C@H]3Cc4ccc(O)c5c4[C@@]2(CCN3CC2CC2)[C@H]1O5 [Compound 7, β-Naltrexamineacetic acid] |  |  | 30 to 60% | submaximal responses relative to morphine | 2.4 |  |
| CN1CC[C@]23c4c5ccc(O)c4O[C@H]2C(NC(=O)C(N)CC(=O)O)CC[C@@]3(O)[C@H]1C5 (stereo partly drawn) [Compound 12] | 1 | 6.1 |  |  |  |  |
| CN1CC[C@]23c4c5ccc(O)c4O[C@H]2C(NC(=O)/C=C/C(=O)O)CC[C@@]3(O)[C@H]1C5 (stereo partly drawn) [Compound 9] | 1 | 1.5 |  |  |  |  |
| CN1CC[C@]23c4c5ccc(O)c4O[C@H]2C(NC(=O)/C=C\C(=O)O)CC[C@@]3(O)[C@H]1C5 (stereo partly drawn) [Compound 10] | 1 | 2.7 |  |  |  |  |
| O=C(O)CNN=C1CC[C@@]2(O)[C@H]3Cc4ccc(O)c5c4[C@@]2(CCN3CC2CC2)[C@H]1O5 [Compound 15, Naltrexazoneacetic acid] | 100 |  | 30 to 60% |  |  |  |
| O=C(O)CCC(=O)NC1CC[C@@]2(O)[C@H]3Cc4ccc(O)c5c4[C@@]2(CCN3CC2CC2)[C@H]1O5 (stereo partly drawn) [Compound 1] | 11.0 |  | 30 to 60% | submaximal responses relative to morphine |  |  |
| CN1CC[C@]23c4c5ccc(O)c4O[C@H]2C(NC(=O)CCC(=O)O)CC[C@@]3(O)[C@H]1C5 (stereo partly drawn) [Compound 8] | 1 | 1.6 |  |  |  |  |
| N=C(N)NN=C1CC[C@@]2(O)[C@H]3Cc4ccc(O)c5c4[C@@]2(CCN3CC2CC2)[C@H]1O5 [Compound 16, Naltrexazone iminosemicarbazone] |  | 29 |  |  |  |  |
| O=C(O)/C=C/C(=O)NC1CC[C@@]2(O)[C@H]3Cc4ccc(O)c5c4[C@@]2(CCN3CC2CC2)[C@H]1O5 (stereo partly drawn) [Compound 3] |  | 3 |  |  | 3.7 |  |
| O=C(O)COCC(=O)NC1CC[C@@]2(O)[C@H]3Cc4ccc(O)c5c4[C@@]2(CCN3CC2CC2)[C@H]1O5 (stereo partly drawn) [Compound 4] | 34.8 |  | 30 to 60% | submaximal responses relative to morphine |  |  |
| NC(CC(=O)O)C(=O)NC1CCC2(O)C3Cc4ccc(O)c5c4C2(CCN3CC2CC2)C1O5 (stereo not drawn) [Compound 6] | 1 | 14.2 |  |  |  | possible exception to this generality |
